We go through 1 compound from patent US20060052453A1, “Agent for treating Parkinson's disease comprising astrocyte function-improving agent as active ingredient” (priority 2000, published 2006).

In one data set the test system is dogs. The experiment in a line: Single intravenous dose toxicity in dogs. The class given is in vivo. To be noted: single dose of 100 mg/kg. From the text: It has been confirmed that the compounds of the present invention represented by formula (I) have such low toxicity as being sufficiently safe in using as drugs.
In data set [1] the test system is Experimental Model of Parkinson's Disease Induced by Administration of MPTP. As to the kind of experiment: Experimental model of Parkinson's disease induced by administration of MPTP; striatal dopamine and DOPAC content by HPLC. The format is in vivo, mice. Particulars: for DOPAC content / Dopamine content: average ± standard deviation. As to the method: Improvement Effect of the Compound of the Present Invention in Experimental Model of Parkinson's Disease Induced by Administration of MPTP Male C57BL/6 mice (body weight: 20 to 28 g) were divided into groups each having 6 to 12 animals. Without anesthetizing, MPTP (10 mg/kg; 1-methyl-4-phenyl-1,2,3,6-tetrahydropyridine hydrochloride) was intraperitoneally administered to the mice 4 times at intervals of 1 hour (Brain Res., 824: 224-231 (1999)). To the models thus prepared, Compound A of the present invention ((R)-2-propyloctanoic acid) was administered after 1, 6, 24 and 48 hours. Three days after the final administration, striata of the mice were collected. After weighing, the striata were immediately frozen and stored. Then, dopamine content and DOPAC (3,4-dihydroxypyenylacetate) content were measured by HPLC in a conventional manner and evaluated. […] Dunnett's multiple comparison test (both sides) was performed on the basis of the data of the group with the administration of MPTP alone. The values in Table 1 are shown by the average±the standard deviation.

Where [2] appears, read: Compound A alone 30 mg/kg, no MPTP, male C57BL/6 mice, striatum.
Where [3] appears, read: MPTP (10 mg/kg i.p. x4) + compound A 3 mg/kg at 1, 6, 24 and 48 hours, striatum 3 days after final administration.
Where [4] appears, read: MPTP (10 mg/kg i.p. x4) + compound A 10 mg/kg at 1, 6, 24 and 48 hours, striatum 3 days after final administration.
[5] abbreviates: MPTP (10 mg/kg i.p. x4) + compound A 30 mg/kg at 1, 6, 24 and 48 hours, striatum 3 days after final administration.

For the compound `CCCCCC[C@@H](CCC)C(=O)O` [Compound A, (R)-2-propyloctanoic acid], in the data set on dogs, the Death result is listed as “no case of death was observed”. Moreover, the DOPAC content was 2.97 ± 0.49 µg/g in data set [1] (setting [2]), 1.30 ± 0.31 µg/g in data set [1] (setting [3]), 2.07 ± 0.77 µg/g in data set [1] (setting [4]) and 2.26 ± 0.52 µg/g in data set [1] (setting [5]). Moreover, the Dopamine content in data set [1] (setting [2]) was 12.17 ± 1.41 µg/g; in data set [1] (setting [3]), 4.13 ± 1.48 µg/g; in data set [1] (setting [4]) it was 5.45 ± 2.00 µg/g; in data set [1] (setting [5]) it was 6.75 ± 2.72 µg/g. Moreover, the “Dopamine and DOPAC content compared with the group of MPTP alone” value in data set [1] (MPTP + compound groups vs MPTP alone, Dunnett's multiple comparison test) is “significantly increased dopamine and DOPAC content depending on the dose”. In data set [1] (compound alone in normal animals, data compared with control group), the “Adverse effect when used alone” value was “no adverse effect”.
